Results reported in the NIST ThermoML archive (doi:10.1016/j.jct.2011.01.014).
± gives the expanded uncertainty stated by the source.

Test: xn = mol fraction of the nth substance listed
Conditions: 101 kPa, Liquid; for mass density: Vibrating tube method; for speed of sound: sound velocity cell

## CC(=O)[O-].[NH3+]CCO [2-hydroxyethylammonium acetate] + CO
288.15 K, x1 = 0.0492
  mass density: 850.323 ± 1 kg/m3
  speed of sound: 1214.8 ± 1.9 m/s
288.15 K, x1 = 0.0951
  mass density: 891.619 ± 0.73 kg/m3
  speed of sound: 1276.8 ± 1.7 m/s
288.15 K, x1 = 0.1987
  mass density: 958.564 ± 0.61 kg/m3
  speed of sound: 1390.3 ± 1.7 m/s
288.15 K, x1 = 0.29
  mass density: 1002.52 ± 0.52 kg/m3
  speed of sound: 1476.1 ± 1.8 m/s
288.15 K, x1 = 0.3786
  mass density: 1034.79 ± 0.56 kg/m3
  speed of sound: 1545.4 ± 1.9 m/s
288.15 K, x1 = 0.4825
  mass density: 1066.13 ± 0.73 kg/m3
  speed of sound: 1618.4 ± 2 m/s
288.15 K, x1 = 0.6007
  mass density: 1093.45 ± 1 kg/m3
  speed of sound: 1688 ± 2.3 m/s
288.15 K, x1 = 0.6711
  mass density: 1107.68 ± 1.2 kg/m3
  speed of sound: 1725.1 ± 2.4 m/s
288.15 K, x1 = 0.7797
  mass density: 1126.68 ± 1.6 kg/m3
  speed of sound: 1740.8 ± 2.7 m/s
288.15 K, x1 = 0.8297
  mass density: 1134.06 ± 1.8 kg/m3
  speed of sound: 1797.8 ± 2.8 m/s
288.15 K, x1 = 0.9328
  mass density: 1147.97 ± 2.2 kg/m3
  speed of sound: 1795.3 ± 3 m/s
288.15 K, x1 = 1
  mass density: 1154.7 ± 2.6 kg/m3
  speed of sound: 1817.2 ± 3.2 m/s
290.65 K, x1 = 0.0492
  mass density: 848.152 ± 1 kg/m3
  speed of sound: 1207.2 ± 1.9 m/s
290.65 K, x1 = 0.0951
  mass density: 889.567 ± 0.72 kg/m3
  speed of sound: 1269.4 ± 1.7 m/s
290.65 K, x1 = 0.1987
  mass density: 956.698 ± 0.61 kg/m3
  speed of sound: 1383.4 ± 1.7 m/s
290.65 K, x1 = 0.29
  mass density: 1000.78 ± 0.52 kg/m3
  speed of sound: 1469.5 ± 1.8 m/s
290.65 K, x1 = 0.3786
  mass density: 1033.16 ± 0.56 kg/m3
  speed of sound: 1538.9 ± 1.9 m/s
290.65 K, x1 = 0.4825
  mass density: 1064.58 ± 0.73 kg/m3
  speed of sound: 1612.3 ± 2 m/s
290.65 K, x1 = 0.6007
  mass density: 1091.92 ± 1 kg/m3
  speed of sound: 1681.6 ± 2.3 m/s
290.65 K, x1 = 0.6711
  mass density: 1106.19 ± 1.2 kg/m3
  speed of sound: 1718.6 ± 2.4 m/s
290.65 K, x1 = 0.7797
  mass density: 1125.18 ± 1.6 kg/m3
  speed of sound: 1734.6 ± 2.6 m/s
290.65 K, x1 = 0.8297
  mass density: 1132.65 ± 1.8 kg/m3
  speed of sound: 1790.7 ± 2.8 m/s
290.65 K, x1 = 0.9328
  mass density: 1146.53 ± 2.2 kg/m3
  speed of sound: 1787.9 ± 3 m/s
290.65 K, x1 = 1
  mass density: 1153.28 ± 2.6 kg/m3
  speed of sound: 1810 ± 3.2 m/s
293.15 K, x1 = 0.0492
  mass density: 845.97 ± 1 kg/m3
  speed of sound: 1199.8 ± 1.9 m/s
293.15 K, x1 = 0.0951
  mass density: 887.505 ± 0.72 kg/m3
  speed of sound: 1262.1 ± 1.7 m/s
293.15 K, x1 = 0.1987
  mass density: 954.823 ± 0.61 kg/m3
  speed of sound: 1376.3 ± 1.7 m/s
293.15 K, x1 = 0.29
  mass density: 999.035 ± 0.52 kg/m3
  speed of sound: 1462.8 ± 1.8 m/s
293.15 K, x1 = 0.3786
  mass density: 1031.5 ± 0.56 kg/m3
  speed of sound: 1532.4 ± 1.9 m/s
293.15 K, x1 = 0.4825
  mass density: 1063.02 ± 0.72 kg/m3
  speed of sound: 1606.2 ± 2 m/s
293.15 K, x1 = 0.6007
  mass density: 1090.45 ± 1 kg/m3
  speed of sound: 1675.2 ± 2.3 m/s
293.15 K, x1 = 0.6711
  mass density: 1104.7 ± 1.2 kg/m3
  speed of sound: 1712.1 ± 2.4 m/s
293.15 K, x1 = 0.7797
  mass density: 1123.69 ± 1.6 kg/m3
  speed of sound: 1728.6 ± 2.6 m/s
293.15 K, x1 = 0.8297
  mass density: 1131.24 ± 1.8 kg/m3
  speed of sound: 1784 ± 2.8 m/s
293.15 K, x1 = 0.9328
  mass density: 1145.1 ± 2.2 kg/m3
  speed of sound: 1781.1 ± 3 m/s
293.15 K, x1 = 1
  mass density: 1151.87 ± 2.5 kg/m3
  speed of sound: 1803.2 ± 3.2 m/s
295.65 K, x1 = 0.0492
  mass density: 843.786 ± 1 kg/m3
  speed of sound: 1192.1 ± 1.9 m/s
295.65 K, x1 = 0.0951
  mass density: 885.441 ± 0.72 kg/m3
  speed of sound: 1254.6 ± 1.7 m/s
295.65 K, x1 = 0.1987
  mass density: 952.95 ± 0.61 kg/m3
  speed of sound: 1369.2 ± 1.7 m/s
295.65 K, x1 = 0.29
  mass density: 997.283 ± 0.52 kg/m3
  speed of sound: 1456 ± 1.8 m/s
295.65 K, x1 = 0.3786
  mass density: 1029.84 ± 0.56 kg/m3
  speed of sound: 1525.9 ± 1.9 m/s
295.65 K, x1 = 0.4825
  mass density: 1061.45 ± 0.72 kg/m3
  speed of sound: 1600 ± 2 m/s
295.65 K, x1 = 0.6007
  mass density: 1088.98 ± 1 kg/m3
  speed of sound: 1669.1 ± 2.3 m/s
295.65 K, x1 = 0.6711
  mass density: 1103.21 ± 1.2 kg/m3
  speed of sound: 1705.8 ± 2.4 m/s
295.65 K, x1 = 0.7797
  mass density: 1122.2 ± 1.6 kg/m3
  speed of sound: 1722.7 ± 2.6 m/s
295.65 K, x1 = 0.8297
  mass density: 1129.83 ± 1.8 kg/m3
  speed of sound: 1777.5 ± 2.8 m/s
295.65 K, x1 = 0.9328
  mass density: 1143.67 ± 2.2 kg/m3
  speed of sound: 1774.5 ± 3 m/s
295.65 K, x1 = 1
  mass density: 1150.45 ± 2.5 kg/m3
  speed of sound: 1796.8 ± 3.2 m/s
298.15 K, x1 = 0.0492
  mass density: 841.599 ± 1 kg/m3
  speed of sound: 1184.3 ± 1.9 m/s
298.15 K, x1 = 0.0951
  mass density: 883.376 ± 0.72 kg/m3
  speed of sound: 1247 ± 1.7 m/s
298.15 K, x1 = 0.1987
  mass density: 951.074 ± 0.61 kg/m3
  speed of sound: 1362.2 ± 1.7 m/s
298.15 K, x1 = 0.29
  mass density: 995.529 ± 0.52 kg/m3
  speed of sound: 1449.3 ± 1.8 m/s
298.15 K, x1 = 0.3786
  mass density: 1028.18 ± 0.56 kg/m3
  speed of sound: 1519.5 ± 1.9 m/s
298.15 K, x1 = 0.4825
  mass density: 1059.89 ± 0.72 kg/m3
  speed of sound: 1593.9 ± 2 m/s
298.15 K, x1 = 0.6007
  mass density: 1087.51 ± 1 kg/m3
  speed of sound: 1663 ± 2.3 m/s
298.15 K, x1 = 0.6711
  mass density: 1101.72 ± 1.2 kg/m3
  speed of sound: 1699.7 ± 2.4 m/s
298.15 K, x1 = 0.7797
  mass density: 1120.71 ± 1.6 kg/m3
  speed of sound: 1717 ± 2.6 m/s
298.15 K, x1 = 0.8297
  mass density: 1128.41 ± 1.8 kg/m3
  speed of sound: 1771.3 ± 2.8 m/s
298.15 K, x1 = 0.9328
  mass density: 1142.24 ± 2.2 kg/m3
  speed of sound: 1768.2 ± 3 m/s
298.15 K, x1 = 1
  mass density: 1149.04 ± 2.5 kg/m3
  speed of sound: 1790.7 ± 3.2 m/s
300.65 K, x1 = 0.0492
  mass density: 839.407 ± 1 kg/m3
  speed of sound: 1176.5 ± 1.9 m/s
300.65 K, x1 = 0.0951
  mass density: 881.305 ± 0.73 kg/m3
  speed of sound: 1239.5 ± 1.7 m/s
300.65 K, x1 = 0.1987
  mass density: 949.197 ± 0.61 kg/m3
  speed of sound: 1355.1 ± 1.7 m/s
300.65 K, x1 = 0.29
  mass density: 993.775 ± 0.52 kg/m3
  speed of sound: 1442.7 ± 1.8 m/s
300.65 K, x1 = 0.3786
  mass density: 1026.52 ± 0.56 kg/m3
  speed of sound: 1513.1 ± 1.9 m/s
300.65 K, x1 = 0.4825
  mass density: 1058.32 ± 0.72 kg/m3
  speed of sound: 1587.8 ± 2 m/s
300.65 K, x1 = 0.6007
  mass density: 1086.03 ± 1 kg/m3
  speed of sound: 1657 ± 2.3 m/s
300.65 K, x1 = 0.6711
  mass density: 1100.3 ± 1.2 kg/m3
  speed of sound: 1693.7 ± 2.4 m/s
300.65 K, x1 = 0.7797
  mass density: 1119.26 ± 1.6 kg/m3
  speed of sound: 1711.3 ± 2.6 m/s
300.65 K, x1 = 0.8297
  mass density: 1127 ± 1.8 kg/m3
  speed of sound: 1765.3 ± 2.8 m/s
300.65 K, x1 = 0.9328
  mass density: 1140.81 ± 2.2 kg/m3
  speed of sound: 1762.1 ± 3 m/s
300.65 K, x1 = 1
  mass density: 1147.63 ± 2.5 kg/m3
  speed of sound: 1784.8 ± 3.2 m/s
303.15 K, x1 = 0.0492
  mass density: 837.209 ± 1 kg/m3
  speed of sound: 1168.8 ± 1.9 m/s
303.15 K, x1 = 0.0951
  mass density: 879.233 ± 0.73 kg/m3
  speed of sound: 1232 ± 1.7 m/s
303.15 K, x1 = 0.1987
  mass density: 947.318 ± 0.62 kg/m3
  speed of sound: 1348.1 ± 1.7 m/s
303.15 K, x1 = 0.29
  mass density: 992.018 ± 0.52 kg/m3
  speed of sound: 1436 ± 1.8 m/s
303.15 K, x1 = 0.3786
  mass density: 1024.86 ± 0.56 kg/m3
  speed of sound: 1506.7 ± 1.9 m/s
303.15 K, x1 = 0.4825
  mass density: 1056.74 ± 0.72 kg/m3
  speed of sound: 1581.7 ± 2 m/s
303.15 K, x1 = 0.6007
  mass density: 1084.54 ± 1 kg/m3
  speed of sound: 1651 ± 2.3 m/s
303.15 K, x1 = 0.6711
  mass density: 1098.87 ± 1.2 kg/m3
  speed of sound: 1687.7 ± 2.4 m/s
303.15 K, x1 = 0.7797
  mass density: 1117.84 ± 1.6 kg/m3
  speed of sound: 1705.7 ± 2.6 m/s
303.15 K, x1 = 0.8297
  mass density: 1125.59 ± 1.8 kg/m3
  speed of sound: 1759.4 ± 2.8 m/s
303.15 K, x1 = 0.9328
  mass density: 1139.38 ± 2.2 kg/m3
  speed of sound: 1756.3 ± 3 m/s
303.15 K, x1 = 1
  mass density: 1146.22 ± 2.5 kg/m3
  speed of sound: 1779 ± 3.2 m/s
305.65 K, x1 = 0.0492
  mass density: 835.006 ± 1 kg/m3
305.65 K, x1 = 0.0951
  mass density: 877.153 ± 0.73 kg/m3
305.65 K, x1 = 0.1987
  mass density: 945.436 ± 0.62 kg/m3
305.65 K, x1 = 0.29
  mass density: 990.259 ± 0.52 kg/m3
305.65 K, x1 = 0.3786
  mass density: 1023.19 ± 0.55 kg/m3
305.65 K, x1 = 0.4825
  mass density: 1055.17 ± 0.71 kg/m3
305.65 K, x1 = 0.6007
  mass density: 1083.06 ± 1 kg/m3
305.65 K, x1 = 0.6711
  mass density: 1097.42 ± 1.2 kg/m3
305.65 K, x1 = 0.7797
  mass density: 1116.4 ± 1.6 kg/m3
305.65 K, x1 = 0.8297
  mass density: 1124.17 ± 1.8 kg/m3
305.65 K, x1 = 0.9328
  mass density: 1137.95 ± 2.2 kg/m3
305.65 K, x1 = 1
  mass density: 1144.8 ± 2.5 kg/m3
